Like-named read-outs stand apart in the source and are kept apart here.
How the values were obtained:
[1] = molecular target: T1, NA2009wt (recombinant neuraminidase) (Influenza A virus, UniProt C3W6G3); experiment: biochemical; type: binding, A/California/07/2009 (H1N1) influenza virus
[2] = molecular target: T1, NA2009wt (recombinant neuraminidase); experiment: biochemical; type: biochemical, A/California/07/2009 (H1N1) influenza virus; settings: for decrease in potency relative to oseltamivir carboxylate (4): fluorometric assay; for decrease in potency relative to oseltamivir carboxylate (4) / Ki values, fluorometric assay, as described in the text: pH 6.15; for Ki values, fluorometric assay, as described in the text: units given in the value

Row | SMILES | Ki [1] [nM] | Ki [2] [nM] | decrease in potency relative to oseltamivir carboxylate (4) [2] | Ki values, fluorometric assay, as described in the text [2]
1 | CCC(CC)O[C@@H]1C=C(C(=O)O)C[C@H](N[C@@H](C)C(=O)O)[C@H]1NC(C)=O [compound 8] | 170 ± 60 | 15 ± 2 | comparable to that of oseltamivir carboxylate | 
2 | CCC(CC)O[C@@H]1C=C(P(=O)(O)O)C[C@H](N)[C@H]1NC(C)=O [compound 2, tamiphosphor, reference compound] | 52 ± 9 | 26 ± 4 |  | 
3 | CCC(CC)O[C@@H]1C=C(C(=O)O)C[C@H](NC(=O)COCCOCCOC)[C@H]1NC(C)=O [compound 11] |  |  |  | micromolar range
4 | CCC(CC)O[C@@H]1C=C(C(=O)O)C[C@H](N[C@@H](CC(=O)O)C(=O)O)[C@H]1NC(C)=O (mixture of isomers) [compound 10] |  |  |  | micromolar range
5 | CCC(CC)O[C@@H]1C=C(C(=O)O)C[C@H](N[C@H](C)C(=O)O)[C@H]1NC(C)=O [compound 9] | 960 ± 260 | 250 ± 40 | ~10 fold | 

From PMC6292454 (Biochemical Journal, 2018)
